Data reported in PubChem BioAssay AID1745844 (Carcinogenic Potency Database (CPDB), 2022).
Active and inactive are the calls of the source. How the calls were made is not given here.

Tested on: rodent lifetime carcinogenesis bioassay, tumor incidence TD50
Assay: carcinogenic potency in animals, long-term in vivo studies, CPDB compilation (AID 1745844)

COC1=CC(=O)C[C@@H](C)[C@]12Oc1c(Cl)c(OC)cc(OC)c1C2=O
carcinogen call (hamster, strain Syrian Golden, females, in feed, site: liver, lesion: cholangiocarcinoma, dosed 97 weeks, study length 101 weeks): negative (inactive)
carcinogen call (hamster, strain Syrian Golden, males, in feed, site: liver, lesion: one or several types, types not named, dosed 123 weeks, study length 127 weeks): negative (inactive)
TD50 (mouse, strain Swiss albino, females, by gavage, site: mammary gland, lesion: infiltrating duct carcinoma, dosed 52 weeks, study length 52 weeks): 13.8 mg/kg/day
carcinogen call (mouse, strain Swiss, females, in feed, site: liver, lesion: hemangioma, dosed 115 weeks, study length 115 weeks): negative (inactive)
carcinogen call (mouse, strain Swiss, females, in feed, site: lung, lesion: one or several types, types not named, dosed 115 weeks, study length 115 weeks): negative (inactive)
carcinogen call (mouse, strain Swiss, males, in feed, site: liver, lesion: hemangioma, dosed 115 weeks, study length 115 weeks): negative (inactive)
TD50 (mouse, strain Swiss, males, in feed, site: liver, lesion: hepatoma, dosed 115 weeks, study length 115 weeks): 1660 mg/kg/day
carcinogen call (mouse, strain Swiss, males, in feed, site: lung, lesion: one or several types, types not named, dosed 115 weeks, study length 115 weeks): negative (inactive)

CCO
carcinogen call (hamster, strain Syrian Golden, males, in drinking water, site: trachea, lesion: one or several types, types not named, dosed 29 weeks, study length 78 weeks): negative (inactive)
TD50 (mouse, strain A, males, in drinking water, site: liver, lesion: hepatocellular adenoma, dosed 72 weeks, study length 72 weeks): 127000 mg/kg/day
carcinogen call (mouse, strain BALB/c, males, in drinking water, site: forestomach, lesion: squamous-cell papilloma, dosed 69 weeks, study length 86 weeks): negative (inactive)
TD50 (mouse, strain Swiss, females, in drinking water, site: any site (literature study), lesion: several types, types named in the paper, dosed 69 weeks, study length 86 weeks): 21400 mg/kg/day (inactive)
TD50 (mouse, strain Swiss, females, in drinking water, site: forestomach, lesion: squamous-cell papilloma, dosed 69 weeks, study length 86 weeks): 10900 mg/kg/day (inactive)
carcinogen call (mouse, strain Swiss, males, in drinking water, site: lung, lesion: adenoma, dosed 69 weeks, study length 86 weeks): negative (inactive)
TD50 (rat, strain ACI, males, in drinking water, site: forestomach, lesion: papilloma, dosed 52 weeks, study length 52 weeks): 4980 mg/kg/day
carcinogen call (rat, strain Charles River CD (Sprague-Dawley), females, in drinking water, site: any site (literature study), lesion: one or several types, types not named, dosed 104 weeks, study length 104 weeks): negative (inactive)
carcinogen call (rat, strain Charles River CD (Sprague-Dawley), females, in drinking water, site: liver, lesion: neoplastic nodule, dosed 104 weeks, study length 104 weeks): negative (inactive)
carcinogen call (rat, strain Charles River CD (Sprague-Dawley), males, in drinking water, site: any site (literature study), lesion: one or several types, types not named, dosed 104 weeks, study length 104 weeks): negative (inactive)
carcinogen call (rat, strain Charles River CD (Sprague-Dawley), males, in drinking water, site: liver, lesion: hepatocellular carcinoma, dosed 104 weeks, study length 104 weeks): negative (inactive)
TD50 (rat, strain Charles River CD (Sprague-Dawley), males, in drinking water, site: liver, lesion: neoplastic nodule, dosed 104 weeks, study length 104 weeks): 84800 mg/kg/day (inactive)
carcinogen call (rat, strain F344/DuCrj, males, in drinking water, site: forestomach, lesion: one or several types, types not named, dosed 51 weeks, study length 52 weeks): negative (inactive)
carcinogen call (rat, strain F344/DuCrj, males, in drinking water, site: stomach, glandular, lesion: one or several types, types not named, dosed 51 weeks, study length 52 weeks): negative (inactive)
TD50 (rat, strain Slc-Wistar, males, in drinking water, site: liver, lesion: hepatocellular adenoma, dosed 120 weeks, study length 120 weeks): 56100 mg/kg/day (inactive)
TD50 (rat, strain Slc-Wistar, males, in drinking water, site: liver, lesion: hepatocellular carcinoma, dosed 120 weeks, study length 120 weeks): 93900 mg/kg/day (inactive)
TD50 (rat, strain Slc-Wistar, males, in drinking water, site: liver, lesion: several types, types named in the paper, dosed 120 weeks, study length 120 weeks): 33800 mg/kg/day (inactive)
carcinogen call (rat, strain Sprague-Dawley, both sexes, in drinking water, site: any site (literature study), lesion: malignant tumor, dosed 111 weeks, study length 111 weeks): negative (inactive)
TD50 (rat, strain Sprague-Dawley, females, in drinking water, site: any site (literature study), lesion: malignant tumor, dosed 104 weeks, study length 120 weeks): 61000 mg/kg/day
TD50 (rat, strain Sprague-Dawley, females, in drinking water, site: any site (literature study), lesion: several types, types named in the paper, dosed 104 weeks, study length 120 weeks): 5870 mg/kg/day
TD50 (rat, strain Sprague-Dawley, females, in drinking water, site: liver, lesion: hepatocellular adenoma, dosed 104 weeks, study length 120 weeks): 201000 mg/kg/day
TD50 (rat, strain Sprague-Dawley, females, in drinking water, site: mammary gland, lesion: benign tumor, dosed 104 weeks, study length 120 weeks): 6070 mg/kg/day
TD50 (rat, strain Sprague-Dawley, females, in drinking water, site: mammary gland, lesion: fibroadenoma, dosed 104 weeks, study length 120 weeks): 8790 mg/kg/day
TD50 (rat, strain Sprague-Dawley, females, in drinking water, site: mammary gland, lesion: several types, types named in the paper, dosed 104 weeks, study length 120 weeks): 4710 mg/kg/day
TD50 (rat, strain Sprague-Dawley, females, in drinking water, site: pancreas, lesion: adenoma, dosed 104 weeks, study length 120 weeks): 21900 mg/kg/day
TD50 (rat, strain Sprague-Dawley, females, in drinking water, site: pituitary gland, lesion: neoplasm, NOS, dosed 104 weeks, study length 120 weeks): 5480 mg/kg/day
TD50 (rat, strain Sprague-Dawley, males, in drinking water, site: adrenal gland, lesion: one or several types, types not named, dosed 130 weeks, study length 130 weeks): 13700 mg/kg/day
TD50 (rat, strain Sprague-Dawley, males, in drinking water, site: any site (literature study), lesion: malignant tumor, dosed 104 weeks, study length 120 weeks): 7180 mg/kg/day
TD50 (rat, strain Sprague-Dawley, males, in drinking water, site: any site (literature study), lesion: several types, types named in the paper, dosed 104 weeks, study length 120 weeks): 1210 mg/kg/day
TD50 (rat, strain Sprague-Dawley, males, in drinking water, site: any site (literature study), lesion: several types, types named in the paper, dosed 130 weeks, study length 130 weeks): 2130 mg/kg/day
TD50 (rat, strain Sprague-Dawley, males, in drinking water, site: liver, lesion: hepatocellular carcinoma, dosed 104 weeks, study length 120 weeks): 164000 mg/kg/day
TD50 (rat, strain Sprague-Dawley, males, in drinking water, site: liver, lesion: hepatocellular carcinoma, dosed 130 weeks, study length 130 weeks): 28400 mg/kg/day
TD50 (rat, strain Sprague-Dawley, males, in drinking water, site: liver, lesion: hyperplastic nodule, dosed 130 weeks, study length 130 weeks): 8260 mg/kg/day
TD50 (rat, strain Sprague-Dawley, males, in drinking water, site: pancreas, lesion: carcinoma, dosed 104 weeks, study length 120 weeks): 17500 mg/kg/day
TD50 (rat, strain Sprague-Dawley, males, in drinking water, site: pancreas, lesion: one or several types, types not named, dosed 130 weeks, study length 130 weeks): 13700 mg/kg/day
TD50 (rat, strain Sprague-Dawley, males, in drinking water, site: pancreas, lesion: several types, types named in the paper, dosed 104 weeks, study length 120 weeks): 33200 mg/kg/day
TD50 (rat, strain Sprague-Dawley, males, in drinking water, site: pituitary gland, lesion: one or several types, types not named, dosed 130 weeks, study length 130 weeks): 9110 mg/kg/day

NNCCO
TD50 (hamster, strain Syrian Golden, females, in drinking water, site: liver, lesion: hepatoma, dosed 84 weeks, study length 84 weeks): 148 mg/kg/day (inactive)
TD50 (hamster, strain Syrian Golden, males, in drinking water, site: liver, lesion: hepatoma, dosed 84 weeks, study length 84 weeks): 84.4 mg/kg/day (inactive)
TD50 (mouse, strain B6AKF1, females, oral dosing, site: any site (literature study), lesion: several types, types named in the paper, dosed 78 weeks, study length 78 weeks): 5.34 mg/kg/day
TD50 (mouse, strain B6AKF1, males, oral dosing, site: any site (literature study), lesion: several types, types named in the paper, dosed 78 weeks, study length 78 weeks): 0.404 mg/kg/day
TD50 (mouse, strain B6AKF1, males, oral dosing, site: liver, lesion: hepatoma, dosed 78 weeks, study length 78 weeks): 0.314 mg/kg/day
TD50 (mouse, strain B6C3F1, females, oral dosing, site: any site (literature study), lesion: several types, types named in the paper, dosed 78 weeks, study length 78 weeks): 4.77 mg/kg/day
TD50 (mouse, strain B6C3F1, females, oral dosing, site: liver, lesion: hepatoma, dosed 78 weeks, study length 78 weeks): 4.77 mg/kg/day
TD50 (mouse, strain B6C3F1, females, oral dosing, site: lung, lesion: adenoma, dosed 78 weeks, study length 78 weeks): 4.77 mg/kg/day
TD50 (mouse, strain B6C3F1, males, oral dosing, site: any site (literature study), lesion: several types, types named in the paper, dosed 78 weeks, study length 78 weeks): 0.713 mg/kg/day
TD50 (mouse, strain B6C3F1, males, oral dosing, site: liver, lesion: hepatoma, dosed 78 weeks, study length 78 weeks): 0.541 mg/kg/day
carcinogen call (mouse, strain Swiss, females, in drinking water, site: lung, lesion: one or several types, types not named, dosed 75 weeks, study length 75 weeks): negative (inactive)
carcinogen call (mouse, strain Swiss, males, in drinking water, site: liver, lesion: several types, types named in the paper, dosed 75 weeks, study length 75 weeks): negative (inactive)
carcinogen call (mouse, strain Swiss, males, in drinking water, site: lung, lesion: one or several types, types not named, dosed 75 weeks, study length 75 weeks): negative (inactive)

CN(C)CCN(Cc1cccs1)c1ccccc1
carcinogen call (rat, strain Fischer 344, females, in drinking water, site: liver, lesion: several types, types named in the paper, dosed 82 weeks, study length 130 weeks): negative (inactive)
TD50 (rat, strain Fischer 344, females, in drinking water, site: thyroid follicle, lesion: several types, types named in the paper, dosed 82 weeks, study length 130 weeks): 487 mg/kg/day (inactive)
carcinogen call (rat, strain Fischer 344, males, in drinking water, site: liver, lesion: several types, types named in the paper, dosed 82 weeks, study length 130 weeks): negative (inactive)
carcinogen call (rat, strain Fischer 344, males, in drinking water, site: thyroid follicle, lesion: several types, types named in the paper, dosed 82 weeks, study length 130 weeks): negative (inactive)
